Source: patent US20250313535A1, “ALPHA 4 BETA 7 INTEGRIN MODULATORS AND USES THEREOF” (DICE MOLECULES SV, INC., priority 2022, published 2025)
Like-named read-outs stand apart in the source and are kept apart here.

What was measured:
Type in all cases: cell-based
α4β7 integrin [1] = target: T1, α4β7 integrin (Homo sapiens (Human), UniProt P13612+P26010); assay: Integrin Adhesion Assay: Protocol 4 (MAdCAM-coated plate, RPMI-8866 cells with stable LOF mutation of the ITGB1 gene); conditions: RPMI-8866 cells with stable LOF mutation of the ITGB1 gene; read-out: Mean IC50 α4β7 KO^a
T1 sequence (P13612 34-1032): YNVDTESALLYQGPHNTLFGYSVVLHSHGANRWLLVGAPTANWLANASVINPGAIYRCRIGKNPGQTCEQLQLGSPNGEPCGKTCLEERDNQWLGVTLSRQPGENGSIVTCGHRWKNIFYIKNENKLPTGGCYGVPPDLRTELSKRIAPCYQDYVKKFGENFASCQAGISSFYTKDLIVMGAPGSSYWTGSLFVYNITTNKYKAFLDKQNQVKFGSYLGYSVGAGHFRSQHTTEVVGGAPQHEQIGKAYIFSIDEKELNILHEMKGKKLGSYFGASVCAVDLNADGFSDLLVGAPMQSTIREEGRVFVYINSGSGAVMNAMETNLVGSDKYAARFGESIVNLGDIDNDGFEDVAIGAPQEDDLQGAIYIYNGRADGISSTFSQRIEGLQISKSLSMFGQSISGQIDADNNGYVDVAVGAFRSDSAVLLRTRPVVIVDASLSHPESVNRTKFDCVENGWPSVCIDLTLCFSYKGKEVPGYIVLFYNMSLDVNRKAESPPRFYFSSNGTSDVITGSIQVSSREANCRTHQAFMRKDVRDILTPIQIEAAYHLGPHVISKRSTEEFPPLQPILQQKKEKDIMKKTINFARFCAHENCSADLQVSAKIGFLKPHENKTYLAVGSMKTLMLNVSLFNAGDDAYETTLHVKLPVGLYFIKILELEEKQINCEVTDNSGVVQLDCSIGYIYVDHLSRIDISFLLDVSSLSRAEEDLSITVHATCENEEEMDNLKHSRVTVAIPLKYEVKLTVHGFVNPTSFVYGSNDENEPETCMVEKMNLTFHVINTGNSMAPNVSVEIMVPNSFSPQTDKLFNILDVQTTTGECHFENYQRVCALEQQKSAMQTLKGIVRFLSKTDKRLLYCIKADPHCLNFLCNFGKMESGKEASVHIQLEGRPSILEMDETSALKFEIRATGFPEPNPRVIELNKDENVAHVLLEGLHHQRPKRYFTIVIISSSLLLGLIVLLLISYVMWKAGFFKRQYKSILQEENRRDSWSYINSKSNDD
T1 sequence (P26010 20-798): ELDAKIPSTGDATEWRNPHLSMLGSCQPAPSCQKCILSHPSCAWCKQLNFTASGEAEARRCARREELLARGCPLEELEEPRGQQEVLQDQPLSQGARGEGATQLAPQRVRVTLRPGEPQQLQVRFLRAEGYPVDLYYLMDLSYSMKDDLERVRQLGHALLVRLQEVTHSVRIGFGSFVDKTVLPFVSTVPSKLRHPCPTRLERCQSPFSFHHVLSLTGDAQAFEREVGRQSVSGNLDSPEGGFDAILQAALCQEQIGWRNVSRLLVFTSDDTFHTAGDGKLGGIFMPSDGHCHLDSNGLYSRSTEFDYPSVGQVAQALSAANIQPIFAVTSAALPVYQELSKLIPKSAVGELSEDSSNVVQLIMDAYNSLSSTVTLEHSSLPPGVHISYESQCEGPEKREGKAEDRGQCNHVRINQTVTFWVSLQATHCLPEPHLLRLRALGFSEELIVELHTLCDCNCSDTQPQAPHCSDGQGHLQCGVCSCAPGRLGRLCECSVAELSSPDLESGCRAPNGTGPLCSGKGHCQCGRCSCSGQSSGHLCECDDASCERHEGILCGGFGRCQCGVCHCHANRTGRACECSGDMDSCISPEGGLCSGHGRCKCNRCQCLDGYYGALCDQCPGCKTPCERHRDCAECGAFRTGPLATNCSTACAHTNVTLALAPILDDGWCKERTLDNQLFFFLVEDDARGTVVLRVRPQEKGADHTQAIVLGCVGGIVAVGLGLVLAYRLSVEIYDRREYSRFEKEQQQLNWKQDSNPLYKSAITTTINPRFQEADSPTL
Outline: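 RPMI-8866 cells with CRISPR/Cas9 knockout of ITGB1 (2×10^6/mL) were added to MAdCAM-coated wells with compound (1% DMSO) in HEPES/NaCl buffer with 1 mM MnCl2, 0.1 mM CaCl2 and 1% BSA, then incubated 1 h at 37 °C. After four washes, adherent cells were quantified by CellTiter-Glo luminescence. Percent inhibition versus DMSO and control compound was fitted to 4-parameter curves.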

α4β7 integrin [2] = target: T1, α4β7 integrin; assay: Integrin Adhesion Assay: Protocol 1 (MAdCAM-coated plate, RPMI-8866 cells, CellTiter GLO readout)
Outline: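 RPMI-8866 cells (2×10^6 per mL) added with compounds (1% DMSO) to MAdCAM-coated wells blocked in HEPES/NaCl buffer with 1 mM MnCl2, 0.1 mM CaCl2, 1% BSA; 1 h at 37° C, 5% CO2. After four washes, bound cells read by CellTiter GLO luminescence; % inhibition vs DMSO and control wells, 4-parameter fit.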

α4β1 integrin = α4β1 integrin (Homo sapiens (Human), UniProt P05556+P13612); assay: Integrin Adhesion Assay: Protocol 5 (VCAM-coated plate, RPMI-8866 cells with stable LOF mutation of the ITGB7 gene)
Sequence of α4β1 integrin (P13612 34-1032): as the sequence (P13612 34-1032) above
Sequence of α4β1 integrin (P05556 21-798): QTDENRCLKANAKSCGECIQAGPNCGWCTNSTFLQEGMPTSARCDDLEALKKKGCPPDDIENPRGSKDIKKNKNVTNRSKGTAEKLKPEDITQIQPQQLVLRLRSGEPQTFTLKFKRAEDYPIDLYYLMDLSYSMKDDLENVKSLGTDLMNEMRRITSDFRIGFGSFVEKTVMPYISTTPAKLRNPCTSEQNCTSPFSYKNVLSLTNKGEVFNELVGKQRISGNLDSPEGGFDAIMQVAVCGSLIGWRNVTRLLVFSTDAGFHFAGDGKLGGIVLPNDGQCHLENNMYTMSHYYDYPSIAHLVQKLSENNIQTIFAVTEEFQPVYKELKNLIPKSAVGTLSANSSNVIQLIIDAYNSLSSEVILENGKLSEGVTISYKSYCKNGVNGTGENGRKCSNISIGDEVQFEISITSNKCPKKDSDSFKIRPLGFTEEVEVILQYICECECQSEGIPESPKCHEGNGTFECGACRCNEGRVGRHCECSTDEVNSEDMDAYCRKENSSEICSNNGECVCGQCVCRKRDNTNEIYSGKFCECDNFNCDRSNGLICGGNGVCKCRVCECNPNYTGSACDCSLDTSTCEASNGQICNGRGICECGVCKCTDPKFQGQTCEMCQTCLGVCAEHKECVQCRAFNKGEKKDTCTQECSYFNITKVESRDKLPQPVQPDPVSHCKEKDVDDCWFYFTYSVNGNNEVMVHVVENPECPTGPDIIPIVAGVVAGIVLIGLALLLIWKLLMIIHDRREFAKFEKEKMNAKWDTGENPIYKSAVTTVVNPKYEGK
Outline: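 RPMI-8866 B cells with CRISPR/Cas9 ITGB7 knockout (clonal, verified by flow cytometry) adhered to VCAM-coated wells for 1 h at 37° C in HEPES/NaCl buffer with 1 mM MnCl2, 0.1 mM CaCl2, 1% BSA, 1% DMSO. Bound cells quantified by CellTiter-Glo luminescence after washing; % inhibition versus DMSO and control, 4-parameter fit.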

[3] = RPMI-8866 cells with stable LOF mutation of the ITGB7 gene, read-out: Mean IC50 α4β1 KO^b
[4] = Protocol 5, RPMI-8866 cells with LOF mutation of ITGB7, VCAM, read-out: Mean IC50 α4β1 KO

Row | SMILES | IC50 (α4β7 integrin [1]) | IC50 (α4β7 integrin [2]) | IC50 (α4β1 integrin; [3]) | IC50 (α4β1 integrin; [4]) | IC50 (α4β7 integrin [2]; protocol not given)
1 | CN(C)c1ccc2c(c1)c(C(F)(F)F)c(-c1cccc3c(C[C@H](NC(=O)[C@]4(C)CC[C@H](N5CCOC[C@@H]5C(F)(F)F)CC4)C(=O)O)cccc13)c(=O)n2C (single isomer, unassigned) [Compound 410] | 100 to 1000 nM | 100 to 1000 nM |  |  | 
2 | CC[C@@](Cc1cccs1)(C(=O)N[C@@H](Cc1cccc2c(-c3c(C(F)(F)F)ccn(C)c3=O)nccc12)C(=O)O)c1ccccc1 [Compound 291] | 100 to 1000 nM | 100 to 1000 nM |  |  | 
3 | CC[C@@](Cc1cccs1)(C(=O)N[C@@H](Cc1cccc2c(-n3c(=O)ccn(C)c3=O)cccc12)C(=O)O)c1ccccc1 [Compound 292] | 100 to 1000 nM | 100 to 1000 nM |  |  | 
4 | Cc1cncc(C)c1-c1cc(F)c(C(=O)N[C@@H](Cc2cccc3c(-c4c(C(F)(F)F)c5ccccc5n(C)c4=O)cccc23)C(=O)O)c(F)c1 [Compound 305] | > 1000 nM | 100 to 1000 nM |  |  | 
5 | Cn1c(=O)c(-c2cccc3c(C[C@H](NC(=O)C4(C)CCN(C5CCOCC5)CC4)C(=O)O)cccc23)c(C(F)(F)F)c2ccccc21 [Compound 362] |  | 10 to 100 nM | > 1000 nM |  | 
6 | Cn1c(=O)c(-c2cccc3c(C[C@H](NC(=O)C4(C)CCN(C5COC5)CC4)C(=O)O)cccc23)c(C(F)(F)F)c2ccccc21 [Compound 363] |  | 10 to 100 nM | > 1000 nM |  | 
7 | CN(c1cc(F)c(C(=O)N[C@@H](Cc2cccc3c(-c4c(C(F)(F)F)c5ccccc5n(C)c4=O)cccc23)C(=O)O)c(F)c1)C1COC1 [Compound 364] |  | 100 to 1000 nM | > 1000 nM |  | 
8 | CO[C@H](C)c1cc(F)c(C(=O)N[C@@H](Cc2cccc3c(-c4c(C(F)(F)F)c5ccccc5n(C)c4=O)cccc23)C(=O)O)c(F)c1 [Compound 375] |  | 100 to 1000 nM | > 1000 nM |  | 
9 | Cn1c(=O)c(-c2cccc3c(C[C@H](NC(=O)c4c(F)cc(NC5COC5)cc4F)C(=O)O)cccc23)c(C(F)(F)F)c2ccccc21 [Compound 378] |  | 10 to 100 nM | > 1000 nM |  | 
10 | Cn1c(=O)c(-c2cccc3c(C[C@H](NC(=O)c4c(F)cc(N(CC(F)(F)F)C5COC5)cc4F)C(=O)O)cccc23)c(C(F)(F)F)c2ccccc21 [Compound 380] |  | 10 to 100 nM | > 1000 nM |  | 
11 | Cn1c(=O)c(-c2cccc3c(C[C@H](NC(=O)c4c(F)cc(C5CCC(F)(F)CC5)cc4F)C(=O)O)cccc23)c(C(F)(F)F)c2ccccc21 [Compound 381] |  | 100 to 1000 nM | > 1000 nM |  | 
12 | COCCN(C)c1cc(F)c(C(=O)N[C@@H](Cc2cccc3c(-c4c(C(F)(F)F)c5ccccc5n(C)c4=O)cccc23)C(=O)O)c(F)c1 [Compound 384] |  | 100 to 1000 nM | > 1000 nM |  | 
13 | COCCN(CC(F)(F)F)c1cc(F)c(C(=O)N[C@@H](Cc2cccc3c(-c4c(C(F)(F)F)c5ccccc5n(C)c4=O)cccc23)C(=O)O)c(F)c1 [Compound 385] |  | 10 to 100 nM | > 1000 nM |  | 
14 | Cn1c(=O)c(-c2cccc3c(C[C@H](NC(=O)c4c(F)cc(N(CCC(F)(F)F)C5COC5)cc4F)C(=O)O)cccc23)c(C(F)(F)F)c2ccccc21 [Compound 392] |  | 10 to 100 nM | > 1000 nM |  | 
15 | COCCN(c1cc(F)c(C(=O)N[C@@H](Cc2cccc3c(-c4c(C(F)(F)F)c5ccccc5n(C)c4=O)cccc23)C(=O)O)c(F)c1)C1COC1 [Compound 393] |  | 10 to 100 nM | > 1000 nM |  | 
16 | Cn1c(=O)c(-c2cccc3c(C[C@H](NC(=O)c4c(F)cc(N(C5COC5)C5COC5)cc4F)C(=O)O)cccc23)c(C(F)(F)F)c2ccccc21 [Compound 397] |  | 100 to 1000 nM | > 1000 nM |  | 
17 | Cn1c(=O)c(-c2cccc3c(C[C@H](NC(=O)[C@]4(C)CC[C@@H](N5CCC(F)(F)CC5)CC4)C(=O)O)cccc23)c(C(F)(F)F)c2ccccc21 [Compound 401] |  | 10 to 100 nM | > 1000 nM |  | 
18 | Cn1c(=O)c(-c2cccc3c(C[C@H](NC(=O)[C@]4(C)CC[C@H](N5CCC(F)(F)CC5)CC4)C(=O)O)cccc23)c(C(F)(F)F)c2ccccc21 [Compound 402] |  | > 1000 nM | > 1000 nM |  | 
19 | Cn1c(C(F)(F)F)cc(C(F)(F)F)c(-c2cccc3c(C[C@H](NC(=O)[C@]4(C)CC[C@@H](N5CCOC[C@@H]5C(F)(F)F)CC4)C(=O)O)cccc23)c1=O [Compound 407] |  | 10 to 100 nM | > 1000 nM |  | 
20 | Cn1c(C(F)(F)F)cc(C(F)(F)F)c(-c2cccc3c(C[C@H](NC(=O)[C@]4(C)CC[C@H](N5CCOC[C@@H]5C(F)(F)F)CC4)C(=O)O)cccc23)c1=O [Compound 408] |  | 10 to 100 nM | > 1000 nM |  | 
21 | CN(C)c1ccc2c(c1)c(C(F)(F)F)c(-c1cccc3c(C[C@H](NC(=O)[C@]4(C)CC[C@H](N5CCC(F)(F)CC5)CC4)C(=O)O)cccc13)c(=O)n2C [Compound 412] |  | > 1000 nM | > 1000 nM |  | 

Results, then the compound that gave them:

Row | IC50 (α4β7 integrin [1]) | IC50 (α4β7 integrin [2]) | IC50 (α4β1 integrin; [3]) | IC50 (α4β1 integrin; [4]) | IC50 (α4β7 integrin [2]; protocol not given) | SMILES
22 |  | 10 to 100 nM | > 1000 nM |  |  | Cn1c(=O)c(-c2cccc3c(C[C@H](NC(=O)C4(C)CCN([C@H]5CCOC5)CC4)C(=O)O)cccc23)c(C(F)(F)F)c2ccccc21 [Compound 413]
23 |  | < 10 nM | > 1000 nM |  |  | Cn1c(=O)c(-c2cccc3c(C[C@H](NC(=O)C4(C)CCN([C@@H]5CCOC5)CC4)C(=O)O)cccc23)c(C(F)(F)F)c2ccccc21 [Compound 414]
24 |  | 100 to 1000 nM | > 1000 nM |  |  | CO[C@@H](C)c1cc(F)c(C(=O)N[C@@H](Cc2cccc3c(-c4c(C(F)(F)F)c5ccccc5n(C)c4=O)cccc23)C(=O)O)c(F)c1 [Compound 415]
25 |  | < 10 nM | > 1000 nM |  |  | CN(C)Cc1cccc2c(-c3cccc4c(C[C@H](NC(=O)[C@]5(C)CC[C@@H](N6CCOC[C@@H]6C(F)(F)F)CC5)C(=O)O)cccc34)nccc12 [Compound 418]
26 |  | 10 to 100 nM | > 1000 nM |  |  | CN(C)Cc1cccc2c(-c3cccc4c(C[C@H](NC(=O)C5(C)CCN(CC(F)(F)F)CC5)C(=O)O)cccc34)nccc12 [Compound 420]
27 |  | < 10 nM | > 1000 nM |  |  | CN(C)Cc1cccc2c(-c3cccc4c(C[C@H](NC(=O)[C@]5(C)CC[C@H](N6CCC(F)(F)CC6)CC5)C(=O)O)cccc34)nccc12 [Compound 424]
28 |  | < 10 nM | 100 to 1000 nM |  |  | Cn1c(C(F)(F)F)cc(C(F)(F)F)c(-c2cccc3c(C[C@H](NC(=O)C4(C(F)(F)F)CCN(CC(F)(F)F)CC4)C(=O)O)cccc23)c1=O [Compound 431]
29 |  | 10 to 100 nM | > 1000 nM |  |  | Cn1ccc(C(F)(F)F)c(-c2cccc3c(C[C@H](NC(=O)c4c(F)cc(N5CCOc6ccccc65)cc4F)C(=O)O)cccc23)c1=O [Compound 439]
30 |  | 10 to 100 nM | > 1000 nM |  |  | Cn1ccc(C(F)(F)F)c(-c2cccc3c(C[C@H](NC(=O)c4c(F)cc(N5CCOC(CN6CCCC6)C5)cc4F)C(=O)O)cccc23)c1=O (stereo partly shown) [Compound 440]
31 |  | < 10 nM | > 1000 nM |  |  | CN(C)Cc1cc(-c2cccc3c(C[C@H](NC(=O)c4c(F)cc(N5CCOC[C@@H]5C(F)(F)F)cc4F)C(=O)O)cccc23)c2cnccc2c1 [Compound 445]
32 |  | < 10 nM | > 1000 nM |  |  | CN(C)Cc1ccc2c(-c3cccc4c(C[C@H](NC(=O)c5c(F)cc(N6CCOC[C@@H]6C(F)(F)F)cc5CN5CCOCC5)C(=O)O)cccc34)nccc2c1 [Compound 557]
33 |  | 10 to 100 nM | > 1000 nM |  |  | CN(C)Cc1ccc2c(-c3cccc4c(C[C@H](NC(=O)[C@]5(C)CC[C@@H](N6CCOC[C@@H]6C(F)(F)F)CC5)C(=O)O)cccc34)nccc2c1 [Compound 581]
34 |  | 10 to 100 nM | > 1000 nM |  |  | CN(C)Cc1ccc2c(-c3cccc4c(C[C@H](NC(=O)[C@]5(C)CC[C@H](N6CCOC[C@@H]6C(F)(F)F)CC5)C(=O)O)cccc34)nccc2c1 [Compound 582]
35 |  | 10 to 100 nM | > 1000 nM |  |  | CN(C)Cc1ccc2c(-c3cccc4c(C[C@H](NC(=O)C5(C)CCN(CC(F)(F)F)CC5)C(=O)O)cccc34)nccc2c1 [Compound 583]
36 |  | < 10 nM | > 1000 nM |  |  | CN(C)Cc1ccc2c(-c3cccc4c(C[C@H](NC(=O)[C@]5(C)CC[C@@H](N6CCC(F)(F)CC6)CC5)C(=O)O)cccc34)nccc2c1 [Compound 585]
37 |  |  |  | 100 to 1000 nM | < 10 nM | CN(C)Cc1ccc2c(c1)c(C(F)(F)F)c(-c1cccc3c(C[C@H](NC(=O)c4c(F)cc(N5CCOC[C@@H]5C(F)(F)F)cc4F)C(=O)O)cccc13)c(=O)n2C [Compound 698]
38 |  |  |  | 100 to 1000 nM | < 10 nM | CN(C)CCc1ccc2c(c1)c(C(F)(F)F)c(-c1cccc3c(C[C@H](NC(=O)c4c(F)cccc4F)C(=O)O)cccc13)c(=O)n2C [Compound 705]
39 |  |  |  | 100 to 1000 nM | < 10 nM | CN(C)CCc1ccc2c(c1)c(C(F)(F)F)c(-c1cccc3c(C[C@H](NC(=O)c4c(F)cc(N5CCOC[C@@H]5C(F)(F)F)cc4F)C(=O)O)cccc13)c(=O)n2C [Compound 708]
40 |  |  |  | > 1000 nM | 10 to 100 nM | O=C(N[C@@H](Cc1cccc2c(-n3c(C(F)(F)F)cccc3=O)cccc12)C(=O)O)c1c(F)cccc1F [Compound 1040]
41 |  |  |  | > 1000 nM | 10 to 100 nM | Cc1cccc(C)c1-c1cc(F)c(C(=O)N[C@@H](Cc2cccc3c(-n4c(=O)cc(CCN5CC(F)C5)n(C)c4=O)cccc23)C(=O)O)c(F)c1 [Compound 1057]
